In general, EC50 refers to the concentration at which the effect is half-maximal.

The target of this assay is T1, human estrogen receptor beta (Homo sapiens, UniProt Q92731).
T1 construct: expressed in transfected cells; host or cells: HEK293 (CRL-1573)
T1 sequence (Q92731 whole entry): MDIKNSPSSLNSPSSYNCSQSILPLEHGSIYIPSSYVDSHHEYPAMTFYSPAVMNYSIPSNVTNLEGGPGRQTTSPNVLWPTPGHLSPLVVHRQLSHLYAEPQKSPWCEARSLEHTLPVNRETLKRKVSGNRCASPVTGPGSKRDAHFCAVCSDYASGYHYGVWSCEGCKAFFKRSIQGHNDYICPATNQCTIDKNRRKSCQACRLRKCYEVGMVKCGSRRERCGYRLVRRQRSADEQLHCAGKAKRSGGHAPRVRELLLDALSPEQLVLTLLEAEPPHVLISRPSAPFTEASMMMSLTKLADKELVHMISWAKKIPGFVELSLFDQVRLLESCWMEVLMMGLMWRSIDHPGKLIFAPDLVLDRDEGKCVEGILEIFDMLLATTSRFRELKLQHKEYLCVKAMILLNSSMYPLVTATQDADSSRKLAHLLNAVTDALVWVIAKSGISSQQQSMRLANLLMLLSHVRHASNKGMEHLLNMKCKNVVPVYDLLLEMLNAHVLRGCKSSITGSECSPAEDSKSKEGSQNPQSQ
The assay can be described thus: Transactivation Assay 2 in human embryonic kidney 293 cells stably transfected with pERE2-ALP and human estrogen receptor beta. In kind it is cell-based. Particulars: read-out: potency at the estrogen receptor β-subtype, EC50. Here is the method:
Transactivation Assay 2: Transactivation Assay in Human Embryonic Kidney 293 Cells Stably Transfected with pERE2-ALP and Human Estrogen Receptor Beta
Generation of stable HEK293 cell lines (CRL-1573; American Type Culture Collection) expressing the reporter vector pERE2-ALP and human estrogen receptor beta (hERβ 530) have been described (Mol Pharmacol 1998, 54, 105-112; Endocrinology 2002, 143, 1558-1561).
The cells were seeded in 384-well plates at 12 500 cells per well in Ham's F12 Coon's modification (without phenol red) with 10% dextran-coated charcoal treated (DCC) fetal bovine serum (FBS), 2 mM L-glutamine and 50 μg/ml gentamicin. After 24 h incubation (37° C., 5% CO2) the seeding medium was discarded and replaced with 20 μl Ham's F12 Coon's modification (without phenol red) with 1.5% DCC-FCS, 2 mM L-glutamine and supplemented with 100 U/ml penicillin and 100 μg/ml streptomycin. The selected compounds were added to the wells in 12 concentrations ranging from […] to 33 μM. The compounds were dissolved in 100% dimethylsulfoxide (DMSO) and the final concentration of DMSO in the assay was 0.1%. After 72 h incubation (37° C., 5% CO2) the medium was assayed for ALP activity by a chemiluminescence assay; a 10 μl aliquot of the conditioned medium was mixed with 100 μl assay buffer (0.1 M diethanolamine, 1 mM MgC12) and 0.5 mM disodium 3-(4-methoxyspiro 1,2-dioxetane-3,2′-(5′-chloro)-tricyclo[3.3.1.13,7]decan-4-yl)phenyl phosphate (CSPD) (Tropix, Applied Biosystems) and incubated for 20 min at 37° C. and 15 min at room temperature before measurement of the chemiluminescent signal (one second per well) in a Wallac Microbeta Trilux 1450-028 (PerkinElmer). The ALP activity expressed in LCPS is directly proportional to the level of ALP expressed by the cells. The half maximal effective concentrations of the test compounds (EC50) were calculated from the curves fitted to the concentration-response data with a four parameter logistic model in XLfit software version 2.0 (IDBS) or later.
For `Cc1csc(C)c1-c1c(-c2ccc(O)cc2)c2ccccc2n1C(N)=NO` [Example 10, 2-(2,4-dimethylthiophen-3-yl)-N′-hydroxy-3-(4-hydroxyphenyl)-1H-indole-1-carboximidamide], the EC50 lay within 0.1 to 10 nM.
`Cc1noc(C)c1-c1c(-c2ccc(O)cc2)c2cc(Cl)ccc2n1C(N)=NO` [Example 22, 5-chloro-2-(3,5-dimethylisoxazol-4-yl)-N′-hydroxy-3-(4-hydroxyphenyl)-1H-indole-1-carboximidamide]: the EC50 fell in the range of 0.1 to 10 nM.
For the compound `Cc1noc(C)c1-c1c(-c2ccc(O)cc2)c2ccccc2n1C(N)=NO` [Example 2, 2-(3,5-dimethylisoxazol-4-yl)-N′-hydroxy-3-(4-hydroxyphenyl)-1H-indole-1-carboximidamide], the concentration giving a half-maximal response (EC50) lay in the range of 0.1 to 10 nM.
The same measure for `Cc1nsc(C)c1-c1c(-c2ccc(O)cc2)c2ccccc2n1C(N)=NO` [Example 24, 2-(3,5-dimethylisothiazol-4-yl)-N′-hydroxy-3-(4-hydroxyphenyl)-1H-indole-1-carboximidamide]: 0.1 to 10 nM.
In the case of `Cc1noc(C)c1-c1c(-c2ccc(O)cc2F)c2ccccc2n1C(N)=NO` [Example 18, 2-(3,5-dimethylisoxazol-4-yl)-3-(2-fluoro-4-hydroxyphenyl)-N′-hydroxy-1H-indole-1-carboximidamide] it was 0.1 to 10 nM.
In the case of `Cc1noc(C)c1-c1c(-c2ccc(O)cc2)c2ccccc2n1C=NO` [Example 5, 2-(3,5-dimethylisoxazol-4-yl)-3-(4-hydroxyphenyl)-1H-indole-1-carbaldehyde oxime] it was 0.1 to 10 nM.
Take `CC=C(C)c1c(-c2ccc(O)cc2)c2ccccc2n1C(N)=NO` (stereo in doubt) [Example 7, 2-((E)-but-2-en-2-yl)-N′-hydroxy-3-(4-hydroxyphenyl)-1H-indole-1-carboximidamide]: the EC50 lay within 0.1 to 10 nM.
With `Cc1noc(C)c1-c1c(-c2ccc(O)cc2)c2ccccc2n1C(N)=O` [Example 3, 2-(3,5-dimethylisoxazol-4-yl)-3-(4-hydroxyphenyl)-1H-indole-1-carboxamide], the 50% effective concentration (EC50) fell in the range of 0.1 to 10 nM.
Turning to `Cc1noc(C)c1-c1c(-c2ccc(O)cc2)c2ccccc2n1S(C)(=O)=O` [Example 6, 4-(2-(3,5-dimethylisoxazol-4-yl)-1-(methylsulfonyl)-1H-indol-3-yl)phenol], the concentration for a half-maximal effect (EC50) is 0.1 to 10 nM.
For `Cc1cccc(C)c1-c1c(-c2ccc(O)cc2)c2ccccc2n1C(N)=NO` [Example 12, 2-(2,6-dimethylphenyl)-N′-hydroxy-3-(4-hydroxyphenyl)-1H-indole-1-carboximidamide], the EC50 lay in the range of 0.1 to 10 nM.
With `Cc1noc(C)c1-c1c(-c2ccc(O)c(F)c2)c2ccccc2n1C(N)=NO` [Example 20, 2-(3,5-dimethylisoxazol-4-yl)-3-(3-fluoro-4-hydroxyphenyl)-N′-hydroxy-1H-indole-1-carboximidamide], the EC50 lay in the range of 0.1 to 10 nM.
Consider `Cc1csc(C)c1-c1c(-c2ccc(O)cc2)c2ccccc2n1C(N)=O` [Example 11, 2-(2,4-dimethylthiophen-3-yl)-3-(4-hydroxyphenyl)-1H-indole-1-carboxamide], for which the 50% effective concentration (EC50) lay in the range of 0.1 to 10 nM.
The same measure for `Cc1noc(C)c1-c1c(-c2cc(F)c(O)c(F)c2)c2ccccc2n1C(N)=NO` [Example 16, 3-(3,5-difluoro-4-hydroxyphenyl)-2-(3,5-dimethylisoxazol-4-yl)-N′-hydroxy-1H-indole-1-carboximidamide]: 0.1 to 10 nM; for `CCNC(=O)n1c(-c2c(C)noc2C)c(-c2ccc(O)cc2)c2ccccc21` [Example 8, 2-(3,5-dimethylisoxazol-4-yl)-N-ethyl-3-(4-hydroxyphenyl)-1H-indole-1-carboxamide]: 0.1 to 10 nM.
In the case of `Cc1coc(C)c1-c1c(-c2ccc(O)cc2)c2ccccc2n1C(N)=NO` [Example 23, 2-(2,4-dimethylfuran-3-yl)-N′-hydroxy-3-(4-hydroxyphenyl)-1H-indole-1-carboximidamide] it was 0.1 to 10 nM; in that of `Cc1csc(C)c1-c1c(-c2ccc(O)cc2)c2cc(Cl)ccc2n1C(N)=NO` [Example 21, 5-chloro-2-(2,4-dimethylthiophen-3-yl)-N′-hydroxy-3-(4-hydroxyphenyl)-1H-indole-1-carboximidamide], 0.1 to 10 nM.
With `Cc1noc(C)c1-c1c(-c2cc(F)c(O)cc2F)c2ccccc2n1C(N)=NO` [Example 19, 3-(2,5-difluoro-4-hydroxyphenyl)-2-(3,5-dimethylisoxazol-4-yl)-N′-hydroxy-1H-indole-1-carboximidamide], the concentration for a half-maximal effect (EC50) lay in the range of 0.1 to 10 nM.

(Values after patent publication US8710243B2, “Estrogen receptor ligands” (Karo Bio AB, priority 2009, dated 2014).)
